Counter-ions that a name gives are not always drawn. Like-named read-outs stand apart in the source and are kept apart here.
Columns and labels:
[1] = molecular target: T1, 20S Human Erythrocyte Proteasome (HEP) (Homo sapiens, UniProt P20618+P28074); assay: Chymotrypsin-like activity of 20S Human Erythrocyte Proteasome (HEP), IC50 determination; format: biochemical; details: assay of Example C, inhibition of HEP
T1 construct: 20S Human Erythrocyte Proteasome (HEP), purchased from Immatics Biotechnologies Inc; purchased Immatics Biotechnologies Inc., Tübingen, Germany; host or cells: human erythrocytes (natural source)
Summary of the method: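 20S proteasome at 0.2 μg/mL (about 0.6 nM catalytic sites) in 20 mM Tris with 0.04% SDS, preincubated 15 min at 37° C with inhibitor before Suc-LLVY-AMC (100 μM final). AMC fluorescence read in the linear range; triplicates, IC50 from concentration series.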

[2] = molecular target: T2, proteasome in Molt-4 cells (human leukemia) (Homo sapiens, UniProt P20618+P28074); format: cell-based
T2 sequence (P28074 60-263): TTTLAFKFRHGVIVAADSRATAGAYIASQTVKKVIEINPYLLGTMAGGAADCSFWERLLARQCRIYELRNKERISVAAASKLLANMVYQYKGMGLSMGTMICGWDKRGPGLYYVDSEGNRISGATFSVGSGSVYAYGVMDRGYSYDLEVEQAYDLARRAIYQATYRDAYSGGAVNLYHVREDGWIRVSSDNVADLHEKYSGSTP
T2 sequence (P20618 29-241): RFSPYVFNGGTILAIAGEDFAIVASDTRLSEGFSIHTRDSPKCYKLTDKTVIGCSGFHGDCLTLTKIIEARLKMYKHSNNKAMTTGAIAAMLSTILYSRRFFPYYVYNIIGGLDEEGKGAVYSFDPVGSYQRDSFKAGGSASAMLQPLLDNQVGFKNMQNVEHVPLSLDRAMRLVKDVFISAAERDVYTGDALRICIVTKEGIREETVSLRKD
Summary of the method: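 Intact Molt-4 cells (6×10^6 cells/mL) in HEPES-buffered saline were preincubated with inhibitor 15 min at 37 °C, then given cell-permeable MeOSuc-FLF-AFC at 25 μM final.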

[3] = assay of Example E, inhibition of MOLT4; read-out: MOLT4 (EC50)

SMILES	IC50 [1]	EC50 [2, 3]	EC50 ([2]; read-out: MOLT4 (EC50); assay of Example E, inhibition of MOLT4)
CC(C)C[C@H](NC(=O)[C@H](CCCNC(=N)N[N+](=O)[O-])NC(=O)c1ccc(Br)cc1)B1O[C@@H]2C[C@@H]3C[C@@H](C3(C)C)[C@]2(C)O1 [D.3.24, 4-Bromobenzamide,N-[(1S)-1-[[[(1R)-1-[(3aS,4S,6S,7aR)-hexahydro-3a,5,5-trimethyl-4,6-methano-1,3,2-benzodioxaborol-2-yl]-3-methylbutyl]amino]carbonyl]-4-[[imino(nitroamino)methyl]amino]butyl]]	< 0.01 µM	< 0.2 µM	
COC(=O)CCCCCCC(=O)N[C@@H](CCCNC(=N)N[N+](=O)[O-])C(=O)N[C@@H](CC(C)C)B1O[C@@H]2C[C@@H]3C[C@@H](C3(C)C)[C@]2(C)O1 [D.2.5]	< 0.01 µM	0.2 to 2 µM	
CC(C)C[C@H](NC(=O)[C@H](CCCNC(=N)N[N+](=O)[O-])NC(=O)CCCc1cccs1)B1O[C@@H]2C[C@@H]3C[C@@H](C3(C)C)[C@]2(C)O1 [D.3.126, 4-(Thiophen-2-yl)butanamide,N-[(1S)-1-[[[(1R)-1-[(3aS,4S,6S,7aR)-hexahydro-3a,5,5-trimethyl-4,6-methano-1,3,2-benzodioxaborol-2-yl]-3-methylbutyl]amino]carbonyl]-4-[[imino(nitroamino)methyl]amino]butyl]]	< 0.01 µM	< 0.2 µM	
CCCCCC(=O)N[C@H](C(=O)N[C@@H](CC(C)C)B1O[C@@H]2C[C@@H]3C[C@@H](C3(C)C)[C@]2(C)O1)[C@@H](C)O [D.3.178, Hexanamide,N-[(1S,2R)-1-[[[(1R)-1-[(3aS,4S,6S,7aR)-hexahydro-3a,5,5-trimethyl-4,6-methano-1,3,2-benzodioxaborol-2-yl]-3-methylbutyl]amino]carbonyl]-2-hydroxypropyl]]	< 0.1 µM	< 0.2 µM	
CCCCCCCCCC(=O)N[C@@H](CC(N)=O)C(=O)N[C@@H](CC(C)C)B1O[C@@H]2C[C@@H]3C[C@@H](C3(C)C)[C@]2(C)O1 [D.8.19, Decanamide, N-[(1S)-1-[[[(1R)-1-[(3aS,4S,6S,7aR)-hexahydro-3a,5,5-trimethyl-4,6-methano-1,3,2-benzodioxaborol-2-yl]-3-methylbutyl]amino]carbonyl]-2-carbamoylethyl]]	< 0.01 µM	< 0.2 µM	
CCCCc1ccc(C(=O)N[C@@H](CNC(=O)c2cccs2)C(=O)N[C@@H](CC(C)C)B(O)O)cc1 [E.5.7, Boronic acid, [(1R)-1-[[(2S)-3-[(thien-2-ylcarbonyl)amino]-2-[(4-butylbenzoylamino)]-1-oxopropyl]amino]-3-methylbutyl]]	< 0.01 µM	< 0.2 µM	
CCCCN1CCC(CCCC(=O)N[C@@H](CCCNC(=N)N[N+](=O)[O-])C(=O)N[C@@H](CC(C)C)B2O[C@@H]3C[C@@H]4C[C@@H](C4(C)C)[C@]3(C)O2)CC1 [D.2.2, 4-(1-Butyl-piperidin-4-yl)-butanamide,N-[(1S)-1-[[[(1R)-1-[(3aS,4S,6S,7aR)-hexahydro-3a,5,5-trimethyl-4,6-methano-1,3,2-benzodioxaborol-2-yl]-3-methylbutyl]amino]carbonyl]-4-[[imino(nitroamino)methyl]amino]butyl]]	< 0.01 µM	> 10 µM	
CCc1ccc(OCC(=O)N[C@@H](CCCNC(=N)N[N+](=O)[O-])C(=O)N[C@@H](CC(C)C)B2O[C@@H]3C[C@@H]4C[C@@H](C4(C)C)[C@]3(C)O2)cc1 [D.3.55]	< 0.01 µM	< 0.2 µM	
COC(=O)CCCCCCC(=O)N[C@@H](CCCNC(=N)N[N+](=O)[O-])C(=O)N[C@@H](CC(C)C)B(O)O [E.1.22, Boronic acid, [(1R)-1-[[(2S)-5-[[imino(nitroamino)methyl]amino]-2-[[7-(methoxycarbonyl)heptanoyl]amino]-1-oxopentyl]amino]-3-methylbutyl]]	< 0.01 µM	> 10 µM	
CC(C)C[C@H](NC(=O)[C@H](CCCNC(=N)N[N+](=O)[O-])NC(=O)[C@@H](C)c1ccccc1)B(O)O [E.2.16, Boronic acid, [(1R)-1-[[(2S)-5-[[imino(nitroamino)methyl]amino]-2-[((2S)-2-phenylpropanoyl)amino]-1-oxopentyl]amino]-3-methylbutyl]]	< 0.01 µM	> 10 µM	
Cc1ccc(C(=O)N[C@@H](CCCNC(=N)N[N+](=O)[O-])C(=O)N[C@@H](CC(C)C)B(O)O)s1 [D.7.12, Boronic acid, [(1R)-1-[[(2S)-5-[[imino(nitroamino)methyl]amino]-2-[(5-methylthiophene-2-carbonyl)amino]-1-oxopentyl]amino]-3-methylbutyl]]	< 0.01 µM	> 10 µM	
CCCCCCCCCC(=O)N[C@@H](CNC(=O)c1cccs1)C(=O)N[C@@H](CC(C)C)B(O)O [E.5.9]	< 0.01 µM	< 0.2 µM	
CCCCc1ccc(C(=O)N[C@@H](CCCNC(=N)N[N+](=O)[O-])C(=O)N[C@@H](CC(C)C)B2O[C@@H]3C[C@@H]4C[C@@H](C4(C)C)[C@]3(C)O2)cc1 [D.1.4, 4-Butylbenzamide,N-[(1S)-1-[[[(1R)-1-[(3aS,4S,6S,7aR)-hexahydro-3a,5,5-trimethyl-4,6-methano-1,3,2-benzodioxaborol-2-yl]-3-methylbutyl]amino]carbonyl]-4-[[imino(nitroamino)methyl]amino]butyl]]	< 0.01 µM	< 0.2 µM	
CC(C)C[C@H](NC(=O)[C@H](CCCNC(=N)N[N+](=O)[O-])NC(=O)CCCCCO)B1O[C@@H]2C[C@@H]3C[C@@H](C3(C)C)[C@]2(C)O1 [D.3.192, 6-hydroxyhexanamide, N-[(1S)-1-[[[(1R)-1-[(3aS,4S,6S,7aR)-hexahydro-3a,5,5-trimethyl-4,6-methano-1,3,2-benzodioxaborol-2-yl]-3-methylbutyl]amino]carbonyl]-4-[[imino(nitroamino)methyl]amino]butyl]]	< 0.1 µM	2 to 10 µM	
CC(=O)SCCCCCC(=O)N[C@@H](CCCNC(=N)N[N+](=O)[O-])C(=O)N[C@@H](CC(C)C)B1O[C@@H]2C[C@@H]3C[C@@H](C3(C)C)[C@]2(C)O1 [D.3.161, 6-(Acetylsulfanyl)hexanamide,N-[(1S)-1-[[[(1R)-1-[(3aS,4S,6S,7aR)-hexahydro-3a,5,5-trimethyl-4,6-methano-1,3,2-benzodioxaborol-2-yl]-3-methylbutyl]amino]carbonyl]-4-[[imino(nitroamino)methyl]amino]butyl]]	< 0.01 µM	0.2 to 2 µM	
CCCCc1ccc(C(=O)N[C@@H](CNC(=O)c2cc(C)nn2C)C(=O)N[C@@H](CC(C)C)B(O)O)cc1 [E.5.29, Boronic acid, [(1R)-1-[[(2S)-3-(4-(1,3-dimethyl-1H-pyrazole-5-carbonylamino]-2-[(4-butylbenzoyl)amino]-1-oxopropyl]amino]-3-methylbutyl] hydrochloride]	< 0.01 µM		< 0.2 µM
CC(C)C[C@H](NC(=O)[C@H](CCCNC(=N)N[N+](=O)[O-])NC(=O)CCCC(=O)c1ccccc1)B(O)O [D.7.6, Boronic acid, [(1R)-1-[[(2S)-5-[[imino(nitroamino)methyl]amino]-2-[(5-oxo-5-phenylpentanoyl)amino]-1-oxopentyl]amino]-3-methylbutyl]]	< 0.01 µM	> 10 µM	
CC[C@@H](C(=O)N[C@@H](CCCNC(=N)N[N+](=O)[O-])C(=O)N[C@@H](CC(C)C)B(O)O)c1ccccc1 [E.2.4, Boronic acid, [(1R)-1-[[(2S)-5-[[imino(nitroamino)methyl]amino]-2-[((2R)-2-phenylbutanoyl)amino]-1-oxopentyl]amino]-3-methylbutyl]]	< 0.01 µM	> 10 µM	
CCCC/C=C/C(=O)N[C@@H](CCCNC(=N)N[N+](=O)[O-])C(=O)N[C@@H](CC(C)C)B1O[C@@H]2C[C@@H]3C[C@@H](C3(C)C)[C@]2(C)O1 [D.3.66, Hept-2-enamide,N-[(1S)-1-[[[(1R)-1-[(3aS,4S,6S,7aR)-hexahydro-3a,5,5-trimethyl-4,6-methano-1,3,2-benzodioxaborol-2-yl]-3-methylbutyl]amino]carbonyl]-4-[[imino(nitroamino)methyl]amino]butyl]]	< 0.01 µM	< 0.2 µM	
CC(C)C[C@H](NC(=O)[C@H](CCCNC(=N)N[N+](=O)[O-])NC(=O)CCCC(=O)c1ccsc1)B(O)O [E.2.64, Boronic acid, [(1R)-1-[[(2S)-5-[[imino(nitroamino)methyl]amino]-2-[[5-oxo-5-(thiophen-3-yl)pentanoyl]amino]-1-oxopentyl]amino]-3-methylbutyl]]	< 0.01 µM	> 10 µM	
CCCCCCCC(=O)N[C@@H](CCCNC(=N)N[N+](=O)[O-])C(=O)N[C@@H](CC(C)C)B1O[C@@H]2C[C@@H]3C[C@@H](C3(C)C)[C@]2(C)O1 [D.3.8, Octanamide,N-[(1S)-1-[[[(1R)-1-[(3aS,4S,6S,7aR)-hexahydro-3a,5,5-trimethyl-4,6-methano-1,3,2-benzodioxaborol-2-yl]-3-methylbutyl]amino]carbonyl]-4-[[imino(nitroamino)methyl]amino]butyl]]	< 0.01 µM	< 0.2 µM	

From patent US8546608B2, “Proteasome inhibitors and methods of using the same” (Cephalon, Inc., priority 2003, dated 2013)
